This assay relates to Interferon-α. Nature of the assay: Induction of Interferon-α using cryopreserved human PBMCs. In kind it is cell-based. The conditions noted are these: PBMC, 24 h, normalised to 1 uM resiquimod, read-out: mean pEC50 for induction of Interferon-α (converted). On the procedure:
Assay for the Induction of Interferon-α using Cryopreserved Human Peripheral Blood Mononuclear Cells (PBMCs)
Compounds were dissolved in DMSO. Serial 2-fold dilutions with DMSO were prepared and 0.25 μl dispensed into 384-well clear Greiner polypropylene plates.
Blood samples of up to 200 ml were obtained from healthy human donors. Whole blood in 25 ml volumes was overlaid onto 15 ml Ficoll gradients in Leucosep tubes, and centrifuged at 1000 g for 20 min. Cells in the band at the plasma/histopaque interface were carefully removed and washed twice with PBS (centrifuged at 400 g for 5 min to harvest). The final pellet was resuspended in freezing medium (90% Heat-inactivated serum, 10% DMSO) to a cell concentration of 4×10^7 cells/ml. The resuspended cells were then cryopreserved (frozen) using a rate controlled freezer, and stored at −140° C. for up to 4 months.
Incubation and Assay for Interferon-α
Immediately prior to assay, vials of cryopreserved (frozen) PBMCs were thawed rapidly in a water bath at 37° C. A 1:10 dilution of the cells in trypan blue was prepared and counted. The PBMCs were then diluted in growth media [RPMI 1640 containing 10% fetal calf serum (invitrogen), Penicillin+Streptavidin (Gibco cat. # 25030-024, 1:50), L-Glutamine 2 mM, and 1000 units/ml recombinant human IFN-gamma (Preprotech catalogue #300-02)] to a density of 1×10^6 cells/ml, and 50 ul/well dispensed to 384-well clear Greiner polypropylene plates containing 0.25 μl DMSO or test compound in 0.25 μl DMSO. […] Plates were incubated for 24 h at 37° C. in 5% CO2.
A multi-isoform immunoassay was used to quantify IFN-α in PBMC supernatants. Rabbit polyclonal antibody against human IFN-α (catalogue number 31101, Stratech Scientific) was diluted 1:10000 in assay buffer (RPMI 1640 containing 10% fetal calf serum, Invitrogen) and 20 μl was added to each well of an MSD (Meso-Scale Discovery) single small-spot 384-well GAR (goat anti-rabbit antibody coated) plate. The plate was incubated for 1 h at room temperature with vigorous shaking. Following three washes with PBS, 20 μl of cell supernatant were added to each well of the plate. The plate was then incubated for 1 h at room temperature with vigorous shaking. A pair of monoclonal antibodies to IFN-α (catalogue numbers 21100 and 21112, Stratech Scientific) were labelled with sulfo-TAG (MSD), diluted 1:1000 in assay buffer and 20 μl added to each well of the plate. The plate was further incubated for 1 h at room temperature with vigorous shaking. Following three washes with PBS, 30 μl of ×2 T buffer (MSD) was added to each well and the plate was read on an MSD Sector 6000 plate reader.
Data were normalised to internal plate controls of 1 uM resiquimod (n=16) and DMSO (n=16). pEC50 values were derived by 4-parameter curve fit with IRLS in ActivityBase, from 11-point, two-fold serial dilution of test compounds.
Regarding `CCCCNc1nc(N)c2[nH]c(=O)n(CCCCN3CCN(CCC)CC3)c2n1` [Example 37, 6-Amino-2-(butylamino)-9-[4-(4-propyl-1-piperazinyl)butyl]-7,9-dihydro-8H-purin-8-one], the EC50 is less than 3.16 µM. Consider `CCCCNc1nc(N)c2[nH]c(=O)n(CCCCN3CCN(C(C)C)CC3)c2n1` [Example 38, 6-Amino-2-(butylamino)-9-{4-[4-(1-methylethyl)-1-piperazinyl]butyl}-7,9-dihydro-8H-purin-8-one], for which the EC50 was less than 3.16 µM. Consider `CCCCNc1nc(N)c2[nH]c(=O)n(CCCCN3CCN(CCCC)CC3)c2n1` [Example 39, 6-Amino-2-(butylamino)-9-[4-(4-butyl-1-piperazinyl)butyl]-7,9-dihydro-8H-purin-8-one], for which the EC50 was less than 3.16 µM. The result for `CCCCNc1nc(N)c2[nH]c(=O)n(CCCCN3CCN(CC(C)C)CC3)c2n1` [Example 40, 6-Amino-2-(butylamino)-9-{4-[4-(2-methylpropyl)-1-piperazinyl]butyl}-7,9-dihydro-8H-purin-8-one] reads less than 3.16 µM; that for `CCCCNc1nc(N)c2[nH]c(=O)n(CCCCN3CCN(CC4CC4)CC3)c2n1` [Example 42, 6-Amino-2-(butylamino)-9-{4-[4-(cyclopropylmethyl)-1-piperazinyl]butyl}-7,9-dihydro-8H-purin-8-one], less than 3.16 µM. For the compound `CCCCNc1nc(N)c2[nH]c(=O)n(CCCCN3CCN(C4CCCC4)CC3)c2n1` [Example 43, 6-Amino-2-(butylamino)-9-[4-(4-cyclopentyl-1-piperazinyl)butyl]-7,9-dihydro-8H-purin-8-one], the EC50 is less than 3.16 µM. As to `CCCCNc1nc(N)c2[nH]c(=O)n(CCCCN3CCN(C4CCCCC4)CC3)c2n1` [Example 44, 6-Amino-2-(butylamino)-9-[4-(4-cyclohexyl-1-piperazinyl)butyl]-7,9-dihydro-8H-purin-8-one], the EC50 was less than 3.16 µM. The result for `CCCCOc1nc(N)c2[nH]c(=O)n(CCCCCN3CCNCC3)c2n1` [Example 45, 6-Amino-2-(butyloxy)-9-[5-(1-piperazinyl)pentyl]-7,9-dihydro-8H-purin-8-one] reads less than 3.16 µM; that for `CCCCOc1nc(N)c2[nH]c(=O)n(CCCCCN3CCN(CC)CC3)c2n1` [Example 47, 6-Amino-2-(butyloxy)-9-[5-(4-ethyl-1-piperazinyl)pentyl]-7,9-dihydro-8H-purin-8-one], less than 3.16 µM; that for `CCC[C@H](C)Oc1nc(N)c2[nH]c(=O)n(CCCCCN3CCNCC3)c2n1` [Example 49, 6-Amino-2-{[(1S)-1-methylbutyl]oxy}-9-[5-(1-piperazinyl)pentyl]-7,9-dihydro-8H-purin-8-one], less than 3.16 µM. The result for `CCC[C@H](C)Oc1nc(N)c2[nH]c(=O)n(CCCCCN3CCN(C)CC3)c2n1` [Example 50, 6-Amino-2-{[(1S)-1-methylbutyl]oxy}-9-[5-(4-methyl-1-piperazinyl)pentyl]-7,9-dihydro-8H-purin-8-one] reads less than 3.16 µM.

For the compound `CCC[C@H](C)Oc1nc(N)c2[nH]c(=O)n(CCCCCN3CCN(CC)CC3)c2n1` [Example 51, 6-Amino-9-[5-(4-ethyl-1-piperazinyl)pentyl]-2-{[(1S)-1-methylbutyl]oxy}-7,9-dihydro-8H-purin-8-one], the EC50 is less than 3.16 µM. As for `CCC[C@H](C)Oc1nc(N)c2[nH]c(=O)n(CCCCCN3CCN(C(C)(C)C)CC3)c2n1` [Example 53, 6-Amino-9-{5-[4-(1,1-dimethylethyl)-1-piperazinyl]pentyl}-2-{[(1S)-1-methylbutyl]oxy}-7,9-dihydro-8H-purin-8-one], the EC50 is less than 3.16 µM.

`CCCCOc1nc(N)c2[nH]c(=O)n(CCCCCCN3CCN(C)CC3)c2n1` [Example 55, 6-Amino-2-(butyloxy)-9-[6-(4-methyl-1-piperazinyl)hexyl]-7,9-dihydro-8H-purin-8-one]: the EC50 is less than 3.16 µM. `CCCCOc1nc(N)c2[nH]c(=O)n(CCCCCCN3CCN(CC)CC3)c2n1` [Example 56, 6-Amino-2-(butyloxy)-9-[6-(4-ethyl-1-piperazinyl)hexyl]-7,9-dihydro-8H-purin-8-one]: the EC50 was less than 3.16 µM. The result for `CCCCOc1nc(N)c2[nH]c(=O)n(CCCCCN3CCN(CCCC)CC3)c2n1` [Example 59, 6-Amino-2-(butyloxy)-9-[5-(4-butyl-1-piperazinyl)pentyl]-7,9-dihydro-8H-purin-8-one] reads less than 3.16 µM; that for `CCCCCN1CCN(CCCCCn2c(=O)[nH]c3c(N)nc(OCCCC)nc32)CC1` [Example 60, 6-Amino-2-(butyloxy)-9-[5-(4-pentyl-1-piperazinyl)pentyl]-7,9-dihydro-8H-purin-8-one], less than 3.16 µM; that for `CCCCOc1nc(N)c2[nH]c(=O)n(CCCCCN3CCN(C(C)(C)C)CC3)c2n1` [Example 61, 6-Amino-2-(butyloxy)-9-{5-[4-(1,1-dimethylethyl)-1-piperazinyl]pentyl}-7,9-dihydro-8H-purin-8-one], less than 3.16 µM.

As to `CCCCOc1nc(N)c2[nH]c(=O)n(CCCCCN3CCN(C4CCCC4)CC3)c2n1` [Example 63, 6-Amino-2-(butyloxy)-9-[5-(4-cyclopentyl-1-piperazinyl)pentyl]-7,9-dihydro-8H-purin-8-one], the EC50 is less than 3.16 µM. `CCCCOc1nc(N)c2[nH]c(=O)n(CCCCCN3CCN(C4CCCCC4)CC3)c2n1` [Example 64, 6-Amino-2-(butyloxy)-9-[5-(4-cyclohexyl-1-piperazinyl)pentyl]-7,9-dihydro-8H-purin-8-one]: the EC50 was less than 3.16 µM. The result for `CCCCOc1nc(N)c2[nH]c(=O)n(CCCCCN3CCN(CC4CC4)CC3)c2n1` [Example 65, 6-Amino-2-(butyloxy)-9-{5-[4-(cyclopropylmethyl)-1-piperazinyl]pentyl}-7,9-dihydro-8H-purin-8-one] reads less than 3.16 µM; that for `CCCCOc1nc(N)c2[nH]c(=O)n(CCCCCN3CCN(CC4CCCC4)CC3)c2n1` [Example 66, 6-Amino-2-(butyloxy)-9-{5-[4-(cyclopentylmethyl)-1-piperazinyl]pentyl}-7,9-dihydro-8H-purin-8-one], less than 3.16 µM; that for `CCCCOc1nc(N)c2[nH]c(=O)n(CCCCN3CCNCC3)c2n1` [Example 67, 6-Amino-2-(butyloxy)-9-[4-(1-piperazinyl)butyl]-7,9-dihydro-8H-purin-8-one], less than 3.16 µM. `CC[C@H](C)Oc1nc(N)c2[nH]c(=O)n(CCCCN3CCN(C(C)C)CC3)c2n1` [Example 68, 6-Amino-9-{4-[4-(1-methylethyl)-1-piperazinyl]butyl}-2-{[(1S)-1-methylpropyl]oxy}-7,9-dihydro-8H-purin-8-one]: the EC50 is less than 3.16 µM. The result for `CCCC[C@H](C)Oc1nc(N)c2[nH]c(=O)n(CCCCN3CCN(C(C)C)CC3)c2n1` [Example 69, 6-Amino-9-{4-[4-(1-methylethyl)-1-piperazinyl]butyl}-2-{[(1S)-1-methylpentyl]oxy}-7,9-dihydro-8H-purin-8-one] reads less than 3.16 µM. Consider `CC(C)Oc1nc(N)c2[nH]c(=O)n(CCCCCN3CCN(C(C)C)CC3)c2n1` [Example 70, 6-Amino-2-[(1-methylethyl)oxy]-9-{5-[4-(1-methylethyl)-1-piperazinyl]pentyl}-7,9-dihydro-8H-purin-8-one], for which the EC50 is less than 3.16 µM. The result for `CC(C)N1CCN(CCCCn2c(=O)[nH]c3c(N)nc(OC4CCC4)nc32)CC1` [Example 71, 6-Amino-2-(cyclobutyloxy)-9-{4-[4-(1-methylethyl)-1-piperazinyl]butyl}-7,9-dihydro-8H-purin-8-one] reads less than 3.16 µM.

On to `CC(C)N1CCN(CCCCn2c(=O)[nH]c3c(N)nc(OC4CCCC4)nc32)CC1` [Example 72, 6-Amino-2-(cyclopentyloxy)-9-{4-[4-(1-methylethyl)-1-piperazinyl]butyl}-7,9-dihydro-8H-purin-8-one], for which the EC50 is less than 3.16 µM.

As to `CC(C)N1CCN(CCCCn2c(=O)[nH]c3c(N)nc(OC4CCCCC4)nc32)CC1` [Example 73, 6-Amino-2-(cyclohexyloxy)-9-{4-[4-(1-methylethyl)-1-piperazinyl]butyl}-7,9-dihydro-8H-purin-8-one], the EC50 was less than 3.16 µM. Turning to `CCC[C@@H](C)Nc1nc(N)c2[nH]c(=O)n(CCCCN3CCN(C(C)C)CC3)c2n1` [Example 74, 6-Amino-2-{[(1R)-1-methylbutyl]amino}-9-{4-[4-(1-methylethyl)-1-piperazinyl]butyl}-7,9-dihydro-8H-purin-8-one], the EC50 was less than 3.16 µM.

The values are drawn from patent US20110135671A1, “PURINE DERIVATIVES FOR USE IN THE TREATMENT OF ALLERGIC, INFLAMMATORY AND INFECTIOUS DISEASES” (GLAXOSMITHKLINE LLC, priority 2008, published 2011).
